Assay results: ChEMBL document CHEMBL1136440, “Design and synthesis of novel RXR-selective modulators with improved pharmacological profile” (Bioorg Med Chem Lett, 2003)

Legend:
[1] = biological target: T1, Retinoic acid receptor gamma (Homo sapiens, UniProt P13631); assay: Binding affinity against RAR gamma receptor using [3H]ATRA as radioligand in CV-1 cells; format: cell-based, Cercopithecidae
T1 sequence (P13631 whole entry): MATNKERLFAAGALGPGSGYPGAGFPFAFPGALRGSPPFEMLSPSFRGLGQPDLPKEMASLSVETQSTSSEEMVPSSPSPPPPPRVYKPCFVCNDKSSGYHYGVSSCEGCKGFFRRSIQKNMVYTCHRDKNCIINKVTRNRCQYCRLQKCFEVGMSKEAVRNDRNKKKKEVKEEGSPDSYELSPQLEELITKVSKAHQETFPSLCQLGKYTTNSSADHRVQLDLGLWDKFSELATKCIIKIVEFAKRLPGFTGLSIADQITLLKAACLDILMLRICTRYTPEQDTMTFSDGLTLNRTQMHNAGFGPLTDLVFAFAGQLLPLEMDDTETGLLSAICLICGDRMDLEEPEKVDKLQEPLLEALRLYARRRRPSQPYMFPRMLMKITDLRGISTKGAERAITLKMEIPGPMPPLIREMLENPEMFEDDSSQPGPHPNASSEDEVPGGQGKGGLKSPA

[2] = biological target: T2, Retinoic acid receptor RXR-gamma (Homo sapiens, UniProt P48443); assay: Binding affinity against RXR gamma receptor using [3H]9-cis-RA as radioligand in CV-1 cells; format: cell-based, Cercopithecidae
T2 sequence (P48443 whole entry): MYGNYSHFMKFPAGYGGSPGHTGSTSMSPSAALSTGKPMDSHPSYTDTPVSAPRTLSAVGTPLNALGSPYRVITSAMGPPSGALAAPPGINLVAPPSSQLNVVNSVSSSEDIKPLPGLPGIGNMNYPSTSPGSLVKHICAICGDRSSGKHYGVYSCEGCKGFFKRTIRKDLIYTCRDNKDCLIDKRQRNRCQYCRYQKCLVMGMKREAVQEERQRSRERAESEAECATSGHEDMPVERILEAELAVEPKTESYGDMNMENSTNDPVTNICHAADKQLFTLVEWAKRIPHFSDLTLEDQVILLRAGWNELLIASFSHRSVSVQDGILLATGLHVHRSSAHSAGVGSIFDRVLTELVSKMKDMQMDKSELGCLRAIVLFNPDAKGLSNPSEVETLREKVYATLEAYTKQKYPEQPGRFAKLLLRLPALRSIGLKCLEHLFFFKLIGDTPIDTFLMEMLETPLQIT

[3] = biological target: T3, Retinoic acid receptor RXR-alpha (Homo sapiens, UniProt P19793); assay: In vitro agonistic activity against RXR alpha in CV-1 cells; format: functional, cell-based, Cercopithecidae
T3 sequence (P19793 whole entry): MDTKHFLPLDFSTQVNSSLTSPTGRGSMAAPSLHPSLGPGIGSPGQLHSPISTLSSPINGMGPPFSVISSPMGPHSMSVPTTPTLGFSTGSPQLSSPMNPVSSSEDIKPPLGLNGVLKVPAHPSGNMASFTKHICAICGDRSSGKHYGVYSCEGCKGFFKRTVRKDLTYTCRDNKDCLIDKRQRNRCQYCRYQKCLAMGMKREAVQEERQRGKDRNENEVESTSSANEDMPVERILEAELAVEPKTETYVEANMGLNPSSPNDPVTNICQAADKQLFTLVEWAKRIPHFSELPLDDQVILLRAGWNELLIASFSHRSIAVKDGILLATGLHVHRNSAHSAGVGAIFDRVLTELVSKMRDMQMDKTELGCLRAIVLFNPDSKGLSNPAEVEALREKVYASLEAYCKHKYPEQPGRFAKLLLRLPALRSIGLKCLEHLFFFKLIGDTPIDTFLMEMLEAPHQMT

| Compound | Ki [1] [µM] | Ki [2] [µM] | EC50 [3] [µM] |
| --- | --- | --- | --- |
| CCOc1c(\C(C)=C/C=C/C(C)=C/C(=O)O)cc(C(F)(F)C(F)(F)F)cc1C(C)C | > 10 | 0.0077 | 0.092 |
| C/C(=C/C=C/C(C)=C/C(=O)O)c1cc(-c2ccccc2F)cc(C(C)C)c1OCC(F)F | 8.76 | 0.0109 | – |
